From PMC8084333, “Trehalose and α-glucan mediate distinct abiotic stress responses in Pseudomonas aeruginosa” (PLoS Genetics, 2021)

Columns and labels:
Assay type in all cases: biochemical
MalQ = molecular target: T1, MalQ (Pseudomonas aeruginosa, UniProt Q9I1V2); assay: MALDI-TOF MS; conditions: 1 mM substrate; disproportionation
T1 construct: gene PA2163; recombinant, N-terminal 6xHis-tag (pET101), E. coli SoluBL21, HisTrap
T1 sequence (Q9I1V2 1-684): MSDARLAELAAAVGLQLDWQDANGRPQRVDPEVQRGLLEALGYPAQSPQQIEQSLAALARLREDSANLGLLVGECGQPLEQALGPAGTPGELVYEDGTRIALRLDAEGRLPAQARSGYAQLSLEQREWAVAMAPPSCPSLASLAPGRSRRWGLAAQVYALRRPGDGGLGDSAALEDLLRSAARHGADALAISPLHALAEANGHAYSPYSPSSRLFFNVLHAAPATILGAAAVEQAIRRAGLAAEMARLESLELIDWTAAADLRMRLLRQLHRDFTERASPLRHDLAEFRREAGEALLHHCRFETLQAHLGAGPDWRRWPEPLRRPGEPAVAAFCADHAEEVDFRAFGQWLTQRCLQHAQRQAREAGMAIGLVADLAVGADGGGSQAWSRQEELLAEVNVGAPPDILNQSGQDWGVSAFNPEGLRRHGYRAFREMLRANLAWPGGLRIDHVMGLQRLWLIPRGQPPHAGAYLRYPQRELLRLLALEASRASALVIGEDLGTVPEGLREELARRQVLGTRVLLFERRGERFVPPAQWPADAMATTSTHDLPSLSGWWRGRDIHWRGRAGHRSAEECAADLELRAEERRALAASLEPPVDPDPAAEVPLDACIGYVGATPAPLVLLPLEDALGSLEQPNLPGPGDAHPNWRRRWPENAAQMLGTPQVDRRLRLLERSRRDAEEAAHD

TreS/Pep2 [1] = molecular target: T2, TreS/Pep2 (Pseudomonas aeruginosa, UniProt Q9I1W3); assay: coupled spectrophotometric ADP-release assay (PK/LDH), global fit; conditions: maltokinase (Pep2 domain); ATP varied, 5 mM MgCl2, pH 8.0, 21 °C; KiB term of random order ternary complex model (substrate dissociation constant), not an inhibition constant
T2 construct: gene PA2152; natural TreS-Pep2 fusion; synthetic codon-optimised gene, N-terminal 6xHis-tag with TEV site, E. coli BL21(DE3), Ni and S200 columns
T2 sequence (Q9I1W3 1-1100): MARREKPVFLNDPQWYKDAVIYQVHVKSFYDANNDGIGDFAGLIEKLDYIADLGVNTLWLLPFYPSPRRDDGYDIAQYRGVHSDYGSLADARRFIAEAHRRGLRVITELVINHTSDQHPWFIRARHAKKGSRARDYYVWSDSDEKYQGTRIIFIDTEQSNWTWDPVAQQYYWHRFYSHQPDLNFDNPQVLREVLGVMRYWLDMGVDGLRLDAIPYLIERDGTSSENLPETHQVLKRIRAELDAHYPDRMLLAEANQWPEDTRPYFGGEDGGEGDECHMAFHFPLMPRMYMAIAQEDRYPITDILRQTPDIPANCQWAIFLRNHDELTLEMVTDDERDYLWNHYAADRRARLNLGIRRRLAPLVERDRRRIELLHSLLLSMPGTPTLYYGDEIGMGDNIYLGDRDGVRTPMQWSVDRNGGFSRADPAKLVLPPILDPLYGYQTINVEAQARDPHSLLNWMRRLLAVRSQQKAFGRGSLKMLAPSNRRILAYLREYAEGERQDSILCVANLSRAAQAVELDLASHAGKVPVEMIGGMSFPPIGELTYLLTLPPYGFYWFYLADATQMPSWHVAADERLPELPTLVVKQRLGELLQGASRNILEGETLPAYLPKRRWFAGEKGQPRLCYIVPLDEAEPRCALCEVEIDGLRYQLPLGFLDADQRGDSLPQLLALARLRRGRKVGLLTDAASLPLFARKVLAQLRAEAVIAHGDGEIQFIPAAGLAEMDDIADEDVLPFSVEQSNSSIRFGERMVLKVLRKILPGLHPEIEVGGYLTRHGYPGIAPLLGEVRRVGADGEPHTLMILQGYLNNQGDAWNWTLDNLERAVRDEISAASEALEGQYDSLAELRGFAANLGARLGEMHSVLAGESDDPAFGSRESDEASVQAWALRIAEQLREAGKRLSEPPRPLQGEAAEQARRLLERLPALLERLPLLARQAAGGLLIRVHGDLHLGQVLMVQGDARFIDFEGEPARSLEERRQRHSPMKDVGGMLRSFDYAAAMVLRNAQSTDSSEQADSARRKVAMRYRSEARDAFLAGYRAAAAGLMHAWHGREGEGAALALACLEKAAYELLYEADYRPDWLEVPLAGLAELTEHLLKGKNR

TreS/Pep2 [2] = molecular target: T2, TreS/Pep2; assay: TreS activity coupled to Pep2 maltokinase ADP-release assay; conditions: trehalose isomerisation (TreS domain); ATP, 5 mM MgCl2, pH 8.0, 21 °C

OC[C@H]1O[C@H](O[C@H]2[C@H](O)[C@@H](O)C(O)O[C@@H]2CO)[C@H](O)[C@@H](O)[C@@H]1O (stereo partly drawn) [maltose]
MALDI-TOF MS (MalQ): We therefore incubated MalQ with maltose
Ki^Mal (TreS/Pep2 [1]): 550 ± 130 µM

OC[C@H]1O[C@H](O[C@H]2O[C@H](CO)[C@@H](O)[C@H](O)[C@H]2O)[C@H](O)[C@@H](O)[C@@H]1O [trehalose]
Km (TreS/Pep2 [2]): > 100 mM
